From patent US9233077B2, “Delayed release cysteamine bead formulation, and methods of making and using same” (RAPTOR PHARMACEUTICALS INC., priority 2013, dated 2016)

Experiment: Plasma protein binding of cysteamine
Format: in vitro ADME
Details: human plasma proteins, predominantly albumin

SMILES: NCCS [cysteamine]
- fraction unbound: ~0.48
